Measurements published in patent US11878965B2, “Inhibitors of peptidylarginine deiminases” (Gilead Sciences, Inc., priority 2020, dated 2024).

Target: human PAD4 (Homo sapiens (Human), UniProt Q9UM07)
Test: In Vitro PAD4 BAEE Biochemical Assay
Details: geometric mean of multiple experiments
Method in brief: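 Recombinant human PAD4 (His-SUMO tag removed, E. coli-expressed), 5 nM, preincubated with compound and 2 mM CaCl2 30 min at 25 °C in MOPS pH 7.6 with DTT; 3 mM BAEE added for 2 h at 25 °C, EDTA stop. Released ammonia detected by o-phthalaldehyde/DTT fluorescence (ex 405, em 535 nm).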

[1] = human PAD4, BAEE substrate, 5 nM PAD4, 2 mM calcium chloride, 3 mM BAEE
[2] = recombinant PAD4 5 nM, 2 mM calcium chloride, 3 mM BAEE substrate

Sequence of human PAD4 (Q9UM07 2-663): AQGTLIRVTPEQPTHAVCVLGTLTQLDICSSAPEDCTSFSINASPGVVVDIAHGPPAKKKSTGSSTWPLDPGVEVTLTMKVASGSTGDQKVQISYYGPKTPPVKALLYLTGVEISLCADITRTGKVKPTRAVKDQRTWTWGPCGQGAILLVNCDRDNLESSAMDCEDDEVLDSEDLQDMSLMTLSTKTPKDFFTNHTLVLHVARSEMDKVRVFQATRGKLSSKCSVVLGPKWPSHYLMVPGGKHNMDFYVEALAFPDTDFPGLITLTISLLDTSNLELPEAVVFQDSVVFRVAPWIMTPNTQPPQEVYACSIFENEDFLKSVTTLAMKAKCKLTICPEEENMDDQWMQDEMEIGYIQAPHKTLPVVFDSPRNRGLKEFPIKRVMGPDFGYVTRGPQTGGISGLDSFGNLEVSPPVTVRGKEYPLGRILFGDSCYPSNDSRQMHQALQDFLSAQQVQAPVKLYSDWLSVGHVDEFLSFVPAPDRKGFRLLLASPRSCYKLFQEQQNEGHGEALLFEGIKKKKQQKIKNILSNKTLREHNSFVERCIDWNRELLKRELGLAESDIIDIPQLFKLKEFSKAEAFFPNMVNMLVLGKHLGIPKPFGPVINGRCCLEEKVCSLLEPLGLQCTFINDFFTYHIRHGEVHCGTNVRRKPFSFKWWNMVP

COc1cc(C(=O)N2[C@H]3CC[C@@H]2[C@H](N)C3)cc2nc(-c3cc4ccc([C@@H](C)NC(C)=O)nc4n3CC3CC3)n(C)c12 [Example 118, N-((R)-1-(2-(5-((1R,2R,4S)-2-amino-7-azabicyclo[2.2.1]heptane-7-carbonyl)-7-methoxy-1-methyl-1H-benzo[d]imidazol-2-yl)-1-(cyclopropylmethyl)-1H-pyrrolo[2,3-b]pyridin-6-yl)ethyl)acetamide]
IC50 [1]: 45.6 nM

CCc1nc(C)c(-c2ncccc2-c2ccc3cc(-c4nc5cc(C(=O)N6CCC[C@@H](N)C6)cc(OC)c5n4C)n(CC4CC4)c3n2)s1 [Example 271, (R)-(3-aminopiperidin-1-yl)(2-(1-(cyclopropylmethyl)-6-(2-(2-ethyl-4-methylthiazol-5-yl)pyridin-3-yl)-1H-pyrrolo[2,3-b]pyridin-2-yl)-7-methoxy-1-methyl-1H-benzo[d]imidazol-5-yl)methanone]
IC50 [1]: 134 nM

COc1cccc(F)c1C(=O)N[C@H](C)c1ccc2cc(-c3nc4cc(C(=O)N5[C@H]6CC[C@@H]5[C@H](N)C6)cc(OC)c4n3C3CC3)n(CC3CC3)c2c1 [Example 149, N-((R)-1-(2-(5-((1R,2R,4S)-2-amino-7-azabicyclo[2.2.1]heptane-7-carbonyl)-1-cyclopropyl-7-methoxy-1H-benzo[d]imidazol-2-yl)-1-(cyclopropylmethyl)-1H-indol-6-yl)ethyl)-2-fluoro-6-methoxybenzamide]
IC50 [1]: 95.4 nM

COc1cc(C(=O)N2C[C@H](N)[C@@H]3CC[C@H]2C3)cc2nc(-c3cc4ccc([C@@H](C)NC(=O)c5cnn(C(F)(F)F)c5)nc4n3CC3CC3)n(C)c12 [Example 320, N-((R)-1-(2-(5-((1S,4R,5R)-4-amino-2-azabicyclo[3.2.1]octane-2-carbonyl)-7-methoxy-1-methyl-1H-benzo[d]imidazol-2-yl)-1-(cyclopropylmethyl)-1H-pyrrolo[2,3-b]pyridin-6-yl)ethyl)-1-(trifluoromethyl)-1H-pyrazole-4-carboxamide]
IC50 [2]: 82.6 nM

CCN(c1ccc2cc(-c3nc4cc(C(=O)N5CCC[C@@H](N)[C@H]5C)cc(OC)c4n3CC3(C)CC3)n(CC3CC3)c2n1)S(C)(=O)=O [Example 40, N-(2-(5-((2R,3R)-3-amino-2-methylpiperidine-1-carbonyl)-7-methoxy-1-((1-methylcyclopropyl)methyl)-1H-benzo[d]imidazol-2-yl)-1-(cyclopropylmethyl)-1H-pyrrolo [2,3-b]pyridin-6-yl)-N-ethylmethanesulfonamide]
IC50 [1]: 329 nM

COc1cc(C(=O)N2C[C@H](N)[C@@H]3CC[C@H]2C3)cc2nc(-c3cc4ccc([C@@H](C)NC(=O)[C@]5(C)CC5(F)F)nc4n3CC3CC3)n(C)c12 [Example 331, (S)-N-((R)-1-(2-(5-((1S,4R,5R)-4-amino-2-azabicyclo[3.2.1]octane-2-carbonyl)-7-methoxy-1-methyl-1H-benzo[d]imidazol-2-yl)-1-(cyclopropylmethyl)-1H-pyrrolo[2,3-b]pyridin-6-yl)ethyl)-2,2-difluoro-1-methylcyclopropane-1-carboxamide]
IC50 [2]: 71 nM

COc1cc(C(=O)N2CCC[C@@H](N)C2)cc2nc(-c3cc4ccc(N(Cc5ccccc5)S(C)(=O)=O)nc4n3CC3CC3)n(C)c12 [Example 11, (R)-N-(2-(5-(3-aminopiperidine-1-carbonyl)-7-methoxy-1-methyl-1H-benzo[d]imidazol-2-yl)-1-(cyclopropylmethyl)-1H-pyrrolo [2,3-b]pyridin-6-yl)-N-benzylmethanesulfonamide]
IC50 [1]: 192 nM

COc1cc(C(=O)N2C[C@H](N)[C@@H]3CC[C@H]2C3)cc2nc(-c3cc4ccc([C@@H](C)NC(=O)c5ccc(C(C)(C)O)nc5)nc4n3CC3CC3)n(C)c12 [Example 300, N-((R)-1-(2-(5-((1S,4R,5R)-4-amino-2-azabicyclo[3.2.1]octane-2-carbonyl)-7-methoxy-1-methyl-1H-benzo[d]imidazol-2-yl)-1-(cyclopropylmethyl)-1H-pyrrolo[2,3-b]pyridin-6-yl)ethyl)-6-(2-hydroxypropan-2-yl)nicotinamide]
IC50 [2]: 72 nM

COc1cc(C(=O)N2C[C@H](N)CC[C@@H]2C)cc2nc(-c3cc4ccc(-c5cccnc5-c5cncnc5)nc4n3CC3CC3)n(C)c12 [Example 266, ((2S,5R)-5-amino-2-methylpiperidin-1-yl)(2-(1-(cyclopropylmethyl)-6-(2-(pyrimidin-5-yl)pyridin-3-yl)-1H-pyrrolo[2,3-b]pyridin-2-yl)-7-methoxy-1-methyl-1H-benzo[d]imidazol-5-yl)methanone]
IC50 [1]: 346 nM

COc1cc(C(=O)N2[C@H]3CC[C@@H]2[C@H](N)C3)cc2nc(-c3cc4ccc([C@@H](C)NC(=O)C(C)(C)OC)cc4n3CC3CC3)n(C)c12 [Example 140, N-((R)-1-(2-(5-((1R,2R,4S)-2-amino-7-azabicyclo[2.2.1]heptane-7-carbonyl)-7-methoxy-1-methyl-1H-benzo[d]imidazol-2-yl)-1-(cyclopropylmethyl)-1H-indol-6-yl)ethyl)-2-methoxy-2-methylpropanamide]
IC50 [1]: 26.1 nM

COC(=O)Nc1ccc2cc(-c3nc4cc(C(=O)N5CCC[C@@H](N)C5)cc(OC)c4n3C)n(CC3CC3)c2n1 [Example 108, (R)-methyl (2-(5-(3-aminopiperidine-1-carbonyl)-7-methoxy-1-methyl-1H-benzo[d]imidazol-2-yl)-1-(cyclopropylmethyl)-1H-pyrrolo[2,3-b]pyridin-6-yl)carbamate]
IC50 [1]: 5760 nM

COc1cc(C(=O)N2CCC[C@@H](N)C2)cc2nc(-c3cc4ccc(N5CCCCS5(=O)=O)nc4n3CC3CC3)n(C)c12 [Example 97, (R)-(3-aminopiperidin-1-yl) (2-(1-(cyclopropylmethyl)-6-(1,1-dioxido-1,2-thiazinan-2-yl)-1H-pyrrolo[2,3-b]pyridin-2-yl)-7-methoxy-1-methyl-1H-benzo[d]imidazol-5-yl)methanone]
IC50 [1]: 159 nM

COc1cc(C(=O)N2CCC[C@@H](N)C2)cc2nc(-c3cc4ccc(N(c5ccccc5)S(C)(=O)=O)nc4n3CC3CC3)n(C)c12 [Example 13, (R)-N-(2-(5-(3-aminopiperidine-1-carbonyl)-7-methoxy-1-methyl-1H-benzo[d]imidazol-2-yl)-1-(cyclopropylmethyl)-1H-pyrrolo [2,3-b]pyridin-6-yl)-N-phenylmethanesulfonamide]
IC50 [1]: 3570 nM

COc1cc(C(=O)N2C[C@H](N)CCN2C)cc2nc(-c3cc4ccc([C@@H](C)NC(=O)C56CC(F)(C5)C6)nc4n3CC3CC3)n(C)c12 [Example 171, N-((R)-1-(2-(5-((R)-5-amino-2-methylhexahydropyridazine-1-carbonyl)-7-methoxy-1-methyl-1H-benzo[d]imidazol-2-yl)-1-(cyclopropylmethyl)-1H-pyrrolo[2,3-b]pyridin-6-yl)ethyl)-3-fluorobicyclo[1.1.1]pentane-1-carboxamide]
IC50 [1]: 90.2 nM

COc1cc(C(=O)N2C[C@H](N)CC[C@@H]2C)cc2nc(-c3cc4ccc(N5C(=O)CC[C@@H]5C)nc4n3CC3CC3)n(C)c12 [Example 285, (S)-1-(2-(5-((2S,5R)-5-amino-2-methylpiperidine-1-carbonyl)-7-methoxy-1-methyl-1H-benzo[d]imidazol-2-yl)-1-(cyclopropylmethyl)-1H-pyrrolo[2,3-b]pyridin-6-yl)-5-methylpyrrolidin-2-one]
IC50 [1]: 322 nM

COc1cc(C(=O)N2C[C@H](N)CCN2C)cc2nc(-c3cc4ccc([C@@H](C)NC(=O)c5ccccc5C(F)F)nc4n3CC3CC3)n(C)c12 [Example 166, N-((R)-1-(2-(5-((R)-5-amino-2-methylhexahydropyridazine-1-carbonyl)-7-methoxy-1-methyl-1H-benzo[d]imidazol-2-yl)-1-(cyclopropylmethyl)-1H-pyrrolo[2,3-b]pyridin-6-yl)ethyl)-2-(difluoromethyl)benzamide]
IC50 [1]: 180 nM

CCN(c1ccc2cc(-c3nc4cc(C(=O)N5CCC[C@@H](N)[C@H]5C)cc(OC)c4n3CCOC)n(CC3CC3)c2n1)S(C)(=O)=O [Example 41, N-(2-(5-((2R,3R)-3-amino-2-methylpiperidine-1-carbonyl)-7-methoxy-1-(2-methoxyethyl)-1H-benzo[d]imidazol-2-yl)-1-(cyclopropylmethyl)-1H-pyrrolo [2,3-b]pyridin-6-yl)-N-ethylmethanesulfonamide]
IC50 [1]: 229 nM

COc1cc(C(=O)N2C[C@H](N)CCN2C)cc2nc(-c3cc4ccc([C@@H](C)NC(=O)C56CC(Cl)(C5)C6)nc4n3CC3CC3)n(C)c12 [Example 186, N—((R)-1-(2-(5-((R)-5-amino-2-methylhexahydropyridazine-1-carbonyl)-7-methoxy-1-methyl-1H-benzo[d]imidazol-2-yl)-1-(cyclopropylmethyl)-1H-pyrrolo[2,3-b]pyridin-6-yl)ethyl)-3-chlorobicyclo[1.1.1]pentane-1-carboxamide]
IC50 [1]: 105 nM

COc1cc(C(=O)N2C[C@H](N)[C@@H]3CC[C@H]2C3)cc2nc(-c3cc4ccc([C@@H](C)NC(=O)c5cccnc5C(F)F)nc4n3CC3CC3)n(C)c12 [Example 305, N-((R)-1-(2-(5-((1S,4R,5R)-4-amino-2-azabicyclo[3.2.1]octane-2-carbonyl)-7-methoxy-1-methyl-1H-benzo[d]imidazol-2-yl)-1-(cyclopropylmethyl)-1H-pyrrolo[2,3-b]pyridin-6-yl)ethyl)-2-(difluoromethyl)nicotinamide]
IC50 [2]: 72.7 nM

COc1cc(C(=O)N2[C@H]3CC[C@@H]2[C@H](N)C3)cc2nc(-c3cc4ccc(N5[C@@H](C)CCCS5(=O)=O)nc4n3CC3CC3)n(C3CC3)c12 [Example 102, ((1R,2R,4S)-2-amino-7-azabicyclo[2.2.1]heptan-7-yl)(1-cyclopropyl-2-(1-(cyclopropylmethyl)-6-((S)-3-methyl-1,1-dioxido-1,2-thiazinan-2-yl)-1H-pyrrolo[2,3-b]pyridin-2-yl)-7-methoxy-1H-benzo[d]imidazol-5-yl)methanone]
IC50 [1]: 42 nM
